pKi: −log10 of the molar value. Where only a bound is given, the exact number is not on record here.

As a reminder, the pKi is the negative decadic logarithm of the Ki, by convention in mol/L.

The target of series [1] is T1, human recombinant GIP receptor (Homo sapiens, UniProt P48546).
T1 construct: expressed in transfected cells; host or cells: CHO-K1 clonal cells (membrane preparation)
T1 sequence (P48546 22-466): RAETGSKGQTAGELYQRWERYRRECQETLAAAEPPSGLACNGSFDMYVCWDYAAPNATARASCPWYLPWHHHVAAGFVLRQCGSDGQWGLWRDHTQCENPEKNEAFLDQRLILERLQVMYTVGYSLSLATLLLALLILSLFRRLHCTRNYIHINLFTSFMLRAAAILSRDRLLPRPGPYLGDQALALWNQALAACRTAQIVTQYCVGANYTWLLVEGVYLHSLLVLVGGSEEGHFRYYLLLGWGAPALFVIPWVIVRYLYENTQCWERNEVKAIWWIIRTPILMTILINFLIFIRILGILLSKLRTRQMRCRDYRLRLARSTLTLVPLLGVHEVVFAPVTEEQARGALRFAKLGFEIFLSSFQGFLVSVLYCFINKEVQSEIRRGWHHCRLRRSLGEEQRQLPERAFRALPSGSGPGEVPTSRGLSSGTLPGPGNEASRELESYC
Briefly: In vitro hGIP receptor binding assay. How it is done:
A. In Vitro hGIP Receptor Binding Assay […] The incubations were terminated by rapid filtration through GF/C filters (pre-soaked in 0.5% polyethylenimine) using a Brandel filtration manifold. Each tube and filter were then washed three times with 5-ml aliquots of ice-cold buffer.

Series [2] is described as follows: Human plasma half-life assay. The format is in vitro ADME. The conditions noted are these: 37° C., LC-MS, read-out: Human Plasma T½ (converted). The method, then: (§1) B. Human and Rat Plasma Half-Life Assay
(§2) 50 μl was removed at various times, like at 0, 1, 2, 3, 4, 8, 24, 32, 48, 56, 72 hours, mixed with 5 μl formic acid and 150 μL acetonitrile in a microcentrifuge tube, vertexed, and centrifuged for 10 minutes at 10 K rpm. The supernatant was transferred to an injection vial and analyzed by LC-MS. The LC-MS system consisted of an API4000 mass spectrometer with an ESI probe. Positive ion mode and full scan detection were used. HPLC separation was carried out on a Luna 3μ. C8 (2), 2×30 mm column with a gradient from 90% A to 90% B in 10 minutes at a flow rate of 0.3 ml/min. Buffer A was 1% formic acid in water and buffer B was 1% formic acid acetonitrile.

Series [3] in a line: Rat plasma half-life assay. The format is in vitro ADME. The conditions noted are these: 37° C., LC-MS, read-out: Rat Plasma T½ (converted). The method, then: as §1, §2

With `CCCC[C@H](NC(=O)[C@H](C)NC(=O)[C@@H](NC(=O)C1(NC(=O)[C@H](Cc2ccc(O)cc2)NC(=O)[C@H](CC(=O)O)NC(=O)[C@H](CO)NC(=O)[C@@H](NC(=O)[C@H](Cc2ccccc2)NC(=O)[C@@H](NC(=O)CNC(=O)[C@H](CCC(=O)O)NC(=O)C(C)(C)NC(=O)[C@@H](N)Cc2cc(I)c(O)c(I)c2)[C@@H](C)O)[C@@H](C)CC)CCCC1)[C@@H](C)CC)C(=O)N[C@@H](CC(=O)O)C(=O)N[C@@H](CCCCN)C(=O)N[C@H](C(=O)N[C@@H](Cc1c[nH]cn1)C(=O)N[C@@H](CCC(N)=O)C(=O)N[C@@H](CCC(N)=O)C(=O)N[C@@H](CC(=O)O)C(=O)N[C@@H](Cc1ccccc1)C(=O)N[C@H](C(=O)N[C@@H](CC(N)=O)C(=O)N[C@@H](Cc1c[nH]c2ccccc12)C(=O)N[C@@H](CC(C)C)C(=O)N[C@@H](CC(C)C)C(=O)N[C@@H](C)C(=O)N[C@@H](CCC(N)=O)C(=O)N[C@@H](CCCCN)C(=O)NCC(=O)N[C@@H](CCCCN)C(=O)N[C@@H](CCCCN)C(=O)N[C@@H](CC(N)=O)C(=O)N[C@@H](CC(=O)O)C(=O)N[C@@H](Cc1c[nH]c2ccccc12)C(=O)N[C@@H](CCCCN)C(=O)N[C@@H](Cc1c[nH]cn1)C(=O)N[C@@H](CC(N)=O)C(=O)N[C@H](C(=O)N[C@H](C(=O)N[C@@H](CCC(N)=O)C(=O)O)[C@@H](C)O)[C@@H](C)CC)C(C)C)[C@@H](C)CC` [Example 17, (3,51-Tyr^1, Aib^2, A5c^11, Nle^14)hGIP(1-42)-OH], in series [1], the negative logarithm of the Ki (pKi) is 7.11. Moreover, the half-life at 0.1 mg/ml in series [2] was more than 72 h; in series [3] it was 30.1 h.
For `CC[C@H](C)[C@H](NC(=O)[C@H](CCCCN)NC(=O)[C@H](CC(=O)O)NC(=O)C1(NC(=O)[C@H](C)NC(=O)[C@@H](NC(=O)C2(NC(=O)[C@H](Cc3ccc(O)cc3)NC(=O)[C@H](CC(=O)O)NC(=O)[C@H](CO)NC(=O)[C@@H](NC(=O)[C@H](Cc3ccccc3)NC(=O)[C@@H](NC(=O)CNC(=O)[C@H](CCC(=O)O)NC(=O)C(C)(C)NC(=O)[C@@H](N)Cc3ccc(O)c(OC)c3)[C@@H](C)O)[C@@H](C)CC)CCCC2)[C@@H](C)CC)CCCC1)C(=O)N[C@@H](Cc1c[nH]cn1)C(=O)N[C@@H](CCC(N)=O)C(=O)N[C@@H](CCC(N)=O)C(=O)N[C@@H](CC(=O)O)C(=O)N[C@@H](Cc1ccccc1)C(=O)N[C@H](C(=O)N[C@@H](CC(N)=O)C(=O)N[C@@H](Cc1c[nH]c2ccccc12)C(=O)N[C@@H](CC(C)C)C(=O)N[C@@H](CC(C)C)C(=O)N[C@@H](C)C(=O)N[C@@H](CCC(N)=O)C(=O)N[C@@H](CCCCN)C(=O)NCC(=O)N[C@@H](CCCCN)C(=O)N[C@@H](CCCCN)C(=O)N[C@@H](CC(N)=O)C(=O)N[C@@H](CC(=O)O)C(=O)N[C@@H](Cc1c[nH]c2ccccc12)C(=O)N[C@@H](CCCCN)C(=O)N[C@@H](Cc1c[nH]cn1)C(=O)N[C@@H](CC(N)=O)C(=O)N[C@H](C(=O)N[C@H](C(=O)N[C@@H](CCC(N)=O)C(=O)N[C@@H](Cc1c[nH]cn1)C(=O)O)[C@@H](C)O)[C@@H](C)CC)C(C)C` [Example 74, (3MeO-Tyr^1, Aib^2, A5c^11, 14, His^43)hGIP(1-43)-OH] the same measures were 8.03, more than 50 h and 12.8 h.
As for `CC[C@H](C)[C@H](NC(=O)[C@H](CCCCN)NC(=O)[C@H](CC(=O)O)NC(=O)[C@H](CCSC)NC(=O)[C@H](C)NC(=O)[C@@H](NC(=O)C1(NC(=O)[C@H](Cc2ccc(O)cc2)NC(=O)[C@H](CC(=O)O)NC(=O)[C@H](CO)NC(=O)[C@@H](NC(=O)[C@H](Cc2ccccc2)NC(=O)[C@@H](NC(=O)CNC(=O)[C@H](CCC(=O)O)NC(=O)C(C)(C)NC(=O)[C@@H](N)CCc2ccc(O)cc2)[C@@H](C)O)[C@@H](C)CC)CCCC1)[C@@H](C)CC)C(=O)N[C@@H](Cc1c[nH]cn1)C(=O)N[C@@H](CCC(N)=O)C(=O)N[C@@H](CCC(N)=O)C(=O)N[C@@H](CC(=O)O)C(=O)N[C@@H](Cc1ccccc1)C(=O)N[C@H](C(=O)N[C@@H](CC(N)=O)C(=O)N[C@@H](Cc1c[nH]c2ccccc12)C(=O)N[C@@H](CC(C)C)C(=O)N[C@@H](CC(C)C)C(=O)N[C@@H](C)C(=O)N[C@@H](CCC(N)=O)C(=O)N[C@@H](CCCCN)C(=O)NCC(=O)N[C@@H](CCCCN)C(=O)N[C@@H](CCCCN)C(=O)N[C@@H](CC(N)=O)C(=O)N[C@@H](CC(=O)O)C(=O)N[C@@H](Cc1c[nH]c2ccccc12)C(=O)N[C@@H](CCCCN)C(=O)N[C@@H](Cc1c[nH]cn1)C(=O)N[C@@H](CC(N)=O)C(=O)N[C@H](C(=O)N[C@H](C(=O)N[C@@H](CCC(N)=O)C(=O)N[C@@H](Cc1c[nH]cn1)C(=O)O)[C@@H](C)O)[C@@H](C)CC)C(C)C` [Example 80, (hTyr^1, Aib^2, A5c^11, His^43)hGIP(1-43)-OH], the negative logarithm of the Ki (pKi) in series [1] was 8.03. The half-life at 0.1 mg/ml in series [2] was 22.6 h; in series [3] it was 18.4 h.
Take `CC[C@H](C)[C@H](NC(=O)[C@H](CCCCN)NC(=O)[C@H](CC(=O)O)NC(=O)C1(NC(=O)[C@H](C)NC(=O)[C@@H](NC(=O)C2(NC(=O)[C@H](Cc3ccc(O)cc3)NC(=O)[C@H](CC(=O)O)NC(=O)[C@H](CO)NC(=O)[C@@H](NC(=O)[C@H](Cc3ccccc3)NC(=O)[C@@H](NC(=O)CNC(=O)[C@H](CCC(=O)O)NC(=O)C(C)(C)NC(=O)[C@@H](N)Cc3c(C)cc(O)cc3C)[C@@H](C)O)[C@@H](C)CC)CCCC2)[C@@H](C)CC)CCCC1)C(=O)N[C@@H](Cc1c[nH]cn1)C(=O)N[C@@H](CCC(N)=O)C(=O)N[C@@H](CCC(N)=O)C(=O)N[C@@H](CC(=O)O)C(=O)N[C@@H](Cc1ccccc1)C(=O)N[C@H](C(=O)N[C@@H](CC(N)=O)C(=O)N[C@@H](Cc1c[nH]c2ccccc12)C(=O)N[C@@H](CC(C)C)C(=O)N[C@@H](CC(C)C)C(=O)N[C@@H](C)C(=O)N[C@@H](CCC(N)=O)C(=O)N[C@@H](CCCCN)C(=O)NCC(=O)N[C@@H](CCCCN)C(=O)N[C@@H](CCCCN)C(=O)N[C@@H](CC(N)=O)C(=O)N[C@@H](CC(=O)O)C(=O)N[C@@H](Cc1c[nH]c2ccccc12)C(=O)N[C@@H](CCCCN)C(=O)N[C@@H](Cc1c[nH]cn1)C(=O)N[C@@H](CC(N)=O)C(=O)N[C@H](C(=O)N[C@H](C(=O)N[C@@H](CCC(N)=O)C(=O)N[C@@H](Cc1c[nH]cn1)C(=O)O)[C@@H](C)O)[C@@H](C)CC)C(C)C` [Example 54, (2,6Me-Tyr^1, Aib^2, A5c^11, 14, His^43)hGIP(1-43)-OH]: the pKi in series [1] is 7.30. Besides, the half-life at 0.1 mg/ml in series [2] is more than 50 h; in series [3], 21.5 h.

For the origin of these results see US8999940B2 (Ipsen Pharma S.A.S., priority 2008, dated 2015).
